Reference: article PMC1977912 (British Journal of Cancer, 1992)
Entries after “also recorded” stand apart in the source; their conditions may differ. Where two headings read alike, the source gives them in different places.

Tests used:
[1] = tested on: AR4-2J cells; assay: Inhibition of unsynchronised AR4-2J cell proliferation by gastrin/CCK receptor antagonists (MTT assay, direct cell counts); assay type: cell-based; details: Rattus norvegicus, AR-42J, 96 h, read-out: half maximal inhibitory concentration, AR4-2J proliferation
[2] = tested on: AR4-2J cells; assay: Reversal by exogenous gastrin of antagonist-induced inhibition of AR4-2J proliferation; assay type: cell-based, rat; details: 5 x 10^-7 M gastrin added 2 h before the antagonist at its growth IC50
[3] = target: T1, gastrin/CCK-B receptors (Rattus norvegicus, UniProt P30553); assay: Displacement of 125I-hG17-1 binding to AR4-2J cells; details: read-out: IC50 for displacing 125I-hG17-1 binding
T1 construct: AR4-2J cells were harvested, washed three times with Eagle's modified essential medium; host or cells: AR4-2J rat pancreatic acinar tumour cells (intact cells)
T1 sequence (P30553 1-452): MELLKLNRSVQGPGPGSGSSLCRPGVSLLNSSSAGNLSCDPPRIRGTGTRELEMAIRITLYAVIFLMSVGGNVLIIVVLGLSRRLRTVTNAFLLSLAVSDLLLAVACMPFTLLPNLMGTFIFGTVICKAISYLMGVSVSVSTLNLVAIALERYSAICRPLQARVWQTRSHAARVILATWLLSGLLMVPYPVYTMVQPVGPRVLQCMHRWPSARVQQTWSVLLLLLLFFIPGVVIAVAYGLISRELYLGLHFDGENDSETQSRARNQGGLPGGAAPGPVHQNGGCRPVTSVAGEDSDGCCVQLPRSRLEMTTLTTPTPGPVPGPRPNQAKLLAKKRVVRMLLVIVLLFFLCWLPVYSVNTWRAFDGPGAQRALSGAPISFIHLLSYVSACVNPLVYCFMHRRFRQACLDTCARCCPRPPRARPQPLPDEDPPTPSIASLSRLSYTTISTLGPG

[4] = tested on: HT-29 cells; assay: HT-29 cell proliferation (MTT assay); assay type: cell-based, human
[5] = tested on: AR4-2J cells; assay: Effect of exogenous gastrin on AR4-2J proliferation in serum-free medium (MTT assay); assay type: cell-based, rat; details: up to 5 x 10^-6 M

Compound | effect of prior addition of gastrin on the inhibition of cell growth [2] | other results
CN1C(=O)[C@@H](NC(=O)c2cc3ccccc3[nH]2)N=C(c2ccccc2)c2ccccc21 [devazepide, 3S (- )-N-(2,3-dihydro-l-methyl-2-oxo-5-phenyl-1 H-1,4-benzodiazepine-3-yl) -1H-indole-2-carboxamide] | not reversed; also recorded: not significantly effected | IC50 [1]: 17 µM
Cc1cccc(NC(=O)N[C@@H]2N=C(c3ccccc3)c3ccccc3N(C)C2=O)c1 [L-365,260, 3R(+)-N-(2,3-dihydro-1-methyl-2-oxo-5-phenyl-1H-1 ,4-benzodiazepin-3-yl) -N'-(3-methylphenyl)urea] | not reversed; also recorded: not significantly effected | 
O=C(N[C@@H](Cc1c[nH]c2ccccc12)C(=O)O)c1ccc(Cl)cc1 [benzotript, N-p-chlorobenzoyl-L- tryptophan] | partially reversed | IC50 [3]: 260 µM
CCCCCN(CCCOC)C(=O)C(CCC(=O)O)NC(=O)c1ccc(Cl)c(Cl)c1 (racemic) [loxiglumide, D,L-4-(3,4-di-chlorobenzoylamino) -5-(N-3-methoxypropylpentylamino)-5-oxo-pentanoic acid] | partially reversed | 
gastrin |  | effect on HT-29 proliferation [4]: neither exogenous gastrin nor an anti-gastrin Ig preparation effected proliferation; effect on proliferation of asynchronous AR4-2J cells [5]: no significant effect
CCCCCN(CCCCC)C(=O)C(CCC(=O)O)NC(=O)c1ccc(Cl)c(Cl)c1 (racemic) [lorglumide, D, L-4-(3,4-dichlorobenzoylamino)-5-(di-n-pentylamino)-5-oxo-pentanoic acid] | partially reversed | 
CCCN(CCC)C(=O)C(CCC(=O)O)NC(=O)c1ccccc1 (racemic) [proglumide, D,L-4-benzamido-N,N-di-n-propylgluta-ramic acid] | partially reversed | IC50 ([1]; 4 day incubation, text statement of range): 3000 µM; IC50 [3]: 1300 µM
